Source: US11439607B2 (Paracelsus Neuroscience I, LLC, priority 2016, dated 2022)
Read-outs that look alike come from different tables or passages of the source.

Experiments:
[1] = Rat screening pharmacokinetics: plasma, brain, CSF exposure; format: in vivo; conditions: Screening PK, 10 mg/kg PO; for CSF / Free Brain / Free Plasma / concentration at 1 h / concentration at 4 h: 10 mg/kg; for concentration at 1 h / concentration at 4 h: po
Method: (§1) Male Sprague-Dawley rats (Crl:SD, Charles River) weighing 200-350 g were dosed to determine tissue exposure at 10 mg/kg p.o. (n=3) for screening pharmacokinetics (PK), and at 10, 30 and 100 mg/kg p.o. for the CCI studies (n=3 from each treatment group taken from the last arm of study). […] The rats were then decapitated and trunk blood was collected to in K3EDTA containing tubes. Plasma samples were generated by centrifugation (3500×g), and stored frozen at −20° C. until bioanalysis. The brains were harvested immediately following blood collection and stored frozen until bioanalysis at −20° C. For CCI animals, the plasma and brain harvests as described for the screening PK, although the tissue collection was initiated after the behavioral assessment was completed, approximately 4 hours 15 minutes after dosing. For spinal column harvest, a 20-gauge needle on a 10 ml syringe filled with cold saline was inserted into the spinal cord. The saline was used to flush the spinal column out. The spinal column tissues were then stored frozen at −20° C. prior to exposure measurements.
(§2) Prior to analysis, the brain and spinal cord samples were thawed at room temperature, weighed and homogenized using a homogenizing solution (IPA/H2O/DMSO; 30:50:20) at a ratio of 3/1 (ml/g) to generate tissue homogenates. An aliquot of 50 μl plasma, or 50 μl brain and spinal cord homogenates is mixed with 150 μl of a DMSO/ACN (20:80) solution that contains an internal standard (50 ng/ml). The diluted plasma, brain and spinal cord sample is then centrifuged (˜500 g for 15 min at 10° C.), supernatant is removed and then injected (10 μl) onto LC/MS/MS system for analysis. An Atlantis T3 column 2.6μ C18, 50×2.1 mm (Waters, Mass.) was used for analytical separation of the acid. A 6-minute mobile phase gradient was employed with mobile phase A (0.1% formic acid in water) ramping down from 99% to 1% (0-4 minutes), and then ramping back up to 99% (4-6 minutes), while ramping up solvent B (1% formic acid in ACN), from 1% to 99% (0-4 minutes), and then ramping down to 1% (4-6 minutes). Spectra was acquired in positive SRM mode with the parent mass of 324 and a daughter ion of 228.

[2] = Plasma, brain and spinal cord exposure in CCI rats; format: in vivo, rat; conditions: for Kp at 4 h / concentration at 4 h: male, Sprague-Dawley, rat; for concentration at 4 h: po
Method: as §1, §2

[3] = Plasma and brain free fraction by equilibrium dialysis; format: in vitro ADME, rat; set-up: dose or concentration left out as unconfirmed
Method: Briefly, naive plasma and brain tissues were homogenized in 3× and 4× w/v in homogenization buffer (50:30:20 H2O:IPA:DMS0), respectively. […] Following equilibration, the buffer sample was fortified with a fixed volume of blank tissue homogenate and the tissue sample was fortified with a fixed volume of buffer. Protein precipitation was performed with ice cold acetonitrile in the presence of an analytical internal standard. The supernatants were quantified for senicapoc using LC-MS/MS as described earlier.

melatonin 1A receptors = biological target: T1, melatonin 1A receptors (Homo sapiens, UniProt P48039); assay: Off target screen (CEREP panel) and dose response; format: binding
T1 construct: CEREP (contract screening)

κ-opioid receptors = biological target: T2, κ-opioid receptors (Homo sapiens, UniProt P41145); assay: Off target screen (CEREP panel) and dose response; format: binding
T2 construct: CEREP (contract screening)

Healthy rats = Healthy rats - Tail flick test; format: in vivo; conditions: Senicapoc 100 mg/kg PO, 240 min after treatment
Method: (§3) Depending on the test, the percentage of activity was calculated from the mean value of the vehicle-treated animals and compared to naïve animals, control paw or cut-off value.

Formalin test = Formalin test - Score; format: in vivo, rodent; conditions: Senicapoc 100 mg/kg PO, 240 min after treatment
Method: as §3

Bennett model = Bennett model - Paw pressure test; format: in vivo, rodent; conditions: Senicapoc 100 mg/kg PO, 240 min after treatment
Method: as §3

Oxaliplatin model = assay: Oxaliplatin - Acetone test (reaction time); format: in vivo, rodent; conditions: Senicapoc 100 mg/kg PO, 240 min after treatment
Method: as §3

Kaolin model = assay: Kaolin - Gait score; format: in vivo, rodent; conditions: Senicapoc 100 mg/kg PO, 240 min after treatment
Method: as §3

Brennan model = Brennan model - Electronic Von Frey test; format: in vivo, rodent; conditions: Senicapoc 100 mg/kg PO, 240 min after treatment
Method: as §3

[4] = full dose response curve, functional testing

T2 sequence (P41145 whole entry): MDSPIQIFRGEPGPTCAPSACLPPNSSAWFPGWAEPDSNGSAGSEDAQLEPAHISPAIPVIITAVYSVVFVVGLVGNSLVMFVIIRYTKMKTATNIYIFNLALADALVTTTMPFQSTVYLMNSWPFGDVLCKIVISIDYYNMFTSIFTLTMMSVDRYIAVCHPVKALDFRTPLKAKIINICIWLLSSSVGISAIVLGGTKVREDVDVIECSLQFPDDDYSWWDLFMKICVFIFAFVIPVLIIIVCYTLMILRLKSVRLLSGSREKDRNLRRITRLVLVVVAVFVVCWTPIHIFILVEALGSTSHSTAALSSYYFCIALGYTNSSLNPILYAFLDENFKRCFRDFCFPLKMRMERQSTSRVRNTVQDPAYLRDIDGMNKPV
T1 sequence (P48039 whole entry): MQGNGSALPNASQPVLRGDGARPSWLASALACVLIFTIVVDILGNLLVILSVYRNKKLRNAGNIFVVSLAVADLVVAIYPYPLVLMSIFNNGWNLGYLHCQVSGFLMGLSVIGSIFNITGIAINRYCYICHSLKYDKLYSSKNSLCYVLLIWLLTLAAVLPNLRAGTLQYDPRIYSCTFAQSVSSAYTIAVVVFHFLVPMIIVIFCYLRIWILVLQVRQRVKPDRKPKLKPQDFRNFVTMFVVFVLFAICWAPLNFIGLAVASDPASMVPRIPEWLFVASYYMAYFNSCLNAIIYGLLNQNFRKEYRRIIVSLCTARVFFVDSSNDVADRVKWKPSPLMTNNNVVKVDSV

CSF ([1]; 1 h, mean ± SD): 25 ± 16 nM | Free Brain ([1]; 1 h, UBBr = 0.008): 37 ± 16 nM | Free Plasma ([1]; 1 h, UBP = 0.027): 17 ± 9 nM | CSF ([1]; 4 h, mean ± SD): 121 ± 62 nM | Free Brain ([1]; 4 h, UBBr = 0.008): 136 ± 50 nM | Free Plasma ([1]; 4 h, UBP = 0.027): 65 ± 22 nM | concentration at 1 h ([1]; male, Sprague-Dawley, rat, brain, 1 h, mean ± SD, read-out: Brain): 4660 ± 1990 nM | concentration at 1 h ([1]; male, Sprague-Dawley, rat, brain, 1 h, UBBr = 0.008, read-out: Free Brain): 37 nM | concentration at 4 h ([1]; male, Sprague-Dawley, rat, brain, 4 h, mean ± SD, read-out: Brain): 16900 ± 6040 nM | concentration at 4 h ([1]; male, Sprague-Dawley, rat, brain, 4 h, UBBr = 0.008, read-out: Free Brain): 136 nM | Kp at 1 h ([1]; male, Sprague-Dawley, rat, brain, 1 h, read-out: Free Brain/Free Plasma): 2.2 | Kp at 4 h ([1]; male, Sprague-Dawley, rat, brain, 4 h, read-out: Free Brain/Free Plasma): 2.1 | concentration at 1 h ([1]; male, Sprague-Dawley, rat, plasma, 1 h, mean ± SD, read-out: Plasma): 637 ± 322 nM | concentration at 1 h ([1]; male, Sprague-Dawley, rat, plasma, 1 h, UBP = 0.027, read-out: Free Plasma): 17 nM | concentration at 4 h ([1]; male, Sprague-Dawley, rat, plasma, 4 h, mean ± SD, read-out: Plasma): 2390 ± 748 nM | concentration at 4 h ([1]; male, Sprague-Dawley, rat, plasma, 4 h, UBP = 0.027, read-out: Free Plasma): 65 nM | concentration at 1 h ([1]; male, Sprague-Dawley, rat, 1 h, mean ± SD, read-out: CSF): 25 nM | concentration at 4 h ([1]; male, Sprague-Dawley, rat, 4 h, mean ± SD, read-out: CSF): 121 nM | Spinal Cord ([2]; 10 mg/kg PO, 4 h, LLQ 773 nM): <LLQ^γ | Plasma ([2]; 10 mg/kg PO, 4 h, n = 1 (2 samples <LLQ 773 nM)): 782^£ nM | Free Plasma ([2]; 10 mg/kg PO, 4 h, n = 1, UBP = 0.027): 21^£ nM | Kp at 4 h ([2]; brain, 10 mg/kg PO, read-out: Free Brain/Free Plasma): 1.1 ± 0.1 | Kp at 4 h ([2]; brain, 30 mg/kg PO, read-out: Free Brain/Free Plasma): 0.9 ± 0.1 | Kp at 4 h ([2]; brain, 100 mg/kg PO, read-out: Free Brain/Free Plasma): 1 ± 0.2 | concentration at 4 h ([2]; brain, 10 mg/kg, 10 mg/kg PO, UBBr = 0.008, read-out: Free Brain): 22 ± 1 nM | concentration at 4 h ([2]; brain, 10 mg/kg, 10 mg/kg PO, mean ± SD, read-out: Brain): 2770 ± 380 nM | concentration at 4 h ([2]; brain, 30 mg/kg, 30 mg/kg PO, UBBr = 0.008, read-out: Free Brain): 51 ± 16 nM | concentration at 4 h ([2]; brain, 30 mg/kg, 30 mg/kg PO, mean ± SD, read-out: Brain): 6420 ± 1960 nM | concentration at 4 h ([2]; brain, 100 mg/kg, 100 mg/kg PO, UBBr = 0.008, read-out: Free Brain): 106 ± 21 nM | concentration at 4 h ([2]; brain, 100 mg/kg, 100 mg/kg PO, mean ± SD, read-out: Brain): 13300 ± 2620 nM | concentration at 4 h ([2]; plasma, 30 mg/kg, 30 mg/kg PO, UBP = 0.027, read-out: Free Plasma): 56 ± 12 nM | concentration at 4 h ([2]; plasma, 30 mg/kg, 30 mg/kg PO, mean ± SD, read-out: Plasma): 2060 ± 452 nM | concentration at 4 h ([2]; plasma, 100 mg/kg, 100 mg/kg PO, UBP = 0.027, read-out: Free Plasma): 103 ± 3 nM | concentration at 4 h ([2]; plasma, 100 mg/kg, 100 mg/kg PO, mean ± SD, read-out: Plasma): 3800 ± 93 nM | Kp at 4 h ([2]; spinal cord, 30 mg/kg PO, read-out: Free Spinal Cord/Free Plasma): 0.8 ± 0.6 | Kp at 4 h ([2]; spinal cord, 100 mg/kg PO, read-out: Free Spinal Cord/Free Plasma): 0.7 ± 0.3 | concentration at 4 h ([2]; spinal cord, 30 mg/kg, 30 mg/kg PO, brain free fraction 0.008 used, read-out: Free Spinal Cord): 38 ± 17 nM | concentration at 4 h ([2]; spinal cord, 30 mg/kg, 30 mg/kg PO, mean ± SD, read-out: Spinal Cord): 3400 ± 2740 nM | concentration at 4 h ([2]; spinal cord, 100 mg/kg, 100 mg/kg PO, brain free fraction 0.008 used, read-out: Free Spinal Cord): 95 ± 17 nM | concentration at 4 h ([2]; spinal cord, 100 mg/kg, 100 mg/kg PO, mean ± SD, read-out: Spinal Cord): 11900 ± 2180 nM | fraction unbound at 2.5 h ([3]; brain homogenate (4x w/v in homogenization buffer), rat brain homogenate, read-out: In vitro rat brain free fraction (UBBr)): 0.008 | fraction unbound at 2.5 h ([3]; plasma (diluted 3x w/v in homogenization buffer), rat plasma, read-out: In vitro rat plasma free fraction (UBP)): 0.027 | inhibition at 10 µM (melatonin 1A receptors; 10 μM): > 50% | IC50 (melatonin 1A receptors; [4]): 1.7 µM | inhibition at 10 µM (κ-opioid receptors; 10 μM): > 50% | IC50 (κ-opioid receptors; [4]): 19 µM
SMILES: NC(=O)C(c1ccccc1)(c1ccc(F)cc1)c1ccc(F)cc1 [Senicapoc]
% of activity vs. vehicle (Healthy rats): 9% | % of activity vs. vehicle (Formalin test; early phase): 14% | % of activity vs. vehicle (Formalin test; late phase): 8% | % of activity vs. vehicle (Bennett model): 69% | % of activity vs. vehicle (Oxaliplatin model): 68% | % of activity vs. vehicle (Kaolin model): 29% | % of activity vs. vehicle (Brennan model): −7%
